From US6753337B2, “Alkynyl containing hydroxamic acid compounds as matrix metalloproteinase/tace inhibitors” (Wyeth Holdings Corporation, priority 1999, dated 2004) come the findings set out here.

Structures can show the parent of a compound that is named as a salt.

Common to all, as to type: biochemical
The target in experiment [1] is T1, MMP-1 (Homo sapiens, UniProt P03956).
T1 sequence (P03956 100-469): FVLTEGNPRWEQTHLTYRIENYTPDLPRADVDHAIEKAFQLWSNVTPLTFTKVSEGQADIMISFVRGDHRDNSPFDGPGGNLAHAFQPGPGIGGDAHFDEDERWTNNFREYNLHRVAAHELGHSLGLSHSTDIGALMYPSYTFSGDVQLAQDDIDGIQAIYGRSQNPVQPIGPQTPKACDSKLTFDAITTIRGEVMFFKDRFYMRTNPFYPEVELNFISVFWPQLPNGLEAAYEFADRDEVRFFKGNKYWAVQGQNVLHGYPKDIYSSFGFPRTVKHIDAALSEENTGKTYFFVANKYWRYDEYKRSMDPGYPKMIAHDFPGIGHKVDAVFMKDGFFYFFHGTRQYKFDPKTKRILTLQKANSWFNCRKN
Kind of experiment: MMP-1 inhibition (thiopeptide or fluorescent peptide substrate). The following applies: printed in the MMP1 IC50 column; concentration not given. How it is done: (§1) These standard pharmacological test procedures are based on the cleavage of a thiopeptide substrates such as Ac-Pro-Leu-Gly(2-mercapto-4-methyl-pentanoyl)-Leu-Gly-OEt by the matrix metalloproteinases MMP-1, MMP-13 (collagenases) or MMP-9 (gelatinase), which results in the release of a substrate product that reacts colorimetrically with DTNB (5,5′-dithiobis(2-nitro-benzoic acid)). The enzyme activity is measured by the rate of the color increase. The thiopeptide substrate is made up fresh as a 20 mM stock in 100% DMSO and the DTNB is dissolved in 100% DMSO as a 100 mM stock and stored in the dark at room temperature. Both the substrate and DTNB are diluted together to 1 mM with substrate buffer (50 mM HEPES pH 7.5, 5 mM CaCl2) before use. The stock of enzyme is diluted with buffer (50 mM HEPES, pH 7.5, 5 mM CaCl2, 0.02% Brij) to the desired final concentration. The buffer, enzyme, vehicle or inhibitor, and DTNB/substrate are added in this order to a 96 well plate (total reaction volume of 200 μl) and the increase in color is monitored spectrophotometrically for 5 minutes at 405 nm on a plate reader and the increase in color over time is plotted as a linear line.
(§2) Alternatively, a fluorescent peptide substrate is used. In this test procedure, the peptide substrate contains a fluorescent group and a quenching group. Upon cleavage of the substrate by an MMP, the fluorescence that is generated is quantitated on the fluorescence plate reader. The assay is run in HCBC assay buffer (50 mM HEPES, pH 7.0, 5 mM Ca^+2, 0.02% Brij, 0.5% Cysteine), with human recombinant MMP-1, MMP-9, or MMP-13. The substrate is dissolved in methanol and stored frozen in 1 mM aliquots. For the assay, substrate and enzymes are diluted in HCBC buffer to the desired concentrations. Compounds are added to the 96 well plate containing enzyme and the reaction is started by the addition of substrate. The reaction is read (excitation 340 nm, emission 444 nm) for 10 min. and the increase in fluorescence over time is plotted as a linear line.
(§3) For either the thiopeptide or fluorescent peptide test procedures, the slope of the line is calculated and represents the reaction rate. The linearity of the reaction rate is confirmed (r^2>0.85). The mean (x±sem) of the control rate is calculated and compared for statistical significance (p<0.05) with drug-treated rates using Dunnett's multiple comparison test. Dose-response relationships can be generated using multiple doses of drug and IC50 values with 95% CI are estimated using linear regression.

The target of experiment [2] is MMP-9 (Homo sapiens, UniProt P14780). The experiment can be described thus: MMP-9 inhibition (thiopeptide or fluorescent peptide substrate). As for the experimental part: as §1, §2, §3
For experiment [3], the target named is TNF-α converting enzyme (TACE) (Homo sapiens, UniProt P78536). Kind of experiment: Test procedure for measuring TACE inhibition (fluorescent peptidyl substrate). As for the experimental part:
Using 96-well black microtiter plates, each well receives a solution composed of 10 μL TACE (final concentration 1 μg/mL), 70 μL Tris buffer, pH 7.4 containing 10% glycerol (final concentration 10 mM), and 10 μL of test compound solution in DMSO (final concentration 1 μM, DMSO concentration <1%) and incubated for 10 minutes at room temperature. The reaction is initiated by addition of a fluorescent peptidyl substrate (final concentration 100 μM to each well and then shaking on a shaker for 5 sec.
The reaction is read (excitation 340 nm, emission 420 nm) for 10 min. and the increase in fluorescence over time is plotted as a linear line. The slope of the line is calculated and represents the reaction rate.
The mean (x±sem) of the control rate is calculated and compared for statistical significance (p<0.05) with drug-treated rates using Dunnett's multiple comparison test.

The target of experiment [4] is MMP-13 (Homo sapiens, UniProt P45452). The experiment can be described thus: MMP-13 inhibition (thiopeptide or fluorescent peptide substrate). The following applies: for MMP13 % inhibition: MMP13 IC50, concentration not given; for IC50: read-out: MMP13 IC50. How it is done:
The enzyme activity is measured by the rate of the color increase. The thiopeptide substrate is made up fresh as a 20 mM stock in 100% DMSO and the DTNB is dissolved in 100% DMSO as a 100 mM stock and stored in the dark at room temperature. Both the substrate and DTNB are diluted together to 1 mM with substrate buffer (50 mM HEPES pH 7.5, 5 mM CaCl2) before use. The stock of enzyme is diluted with buffer (50 mM HEPES, pH 7.5, 5 mM CaCl2, 0.02% Brij) to the desired final concentration.
as §2, with “substrate.” for “substrate. The reaction is read (excitation 340 nm, emission 444 nm) for 10 min. and the increase in fluorescence over time is plotted as a linear line.”
For either the thiopeptide or fluorescent peptide test procedures, the slope of the line is calculated and represents the reaction rate. […] The mean (x±sem) of the control rate is calculated and compared for statistical significance (p<0.05) with drug-treated rates using Dunnett's multiple comparison test.

Chain of TNF-α converting enzyme (TACE) (P78536 215-824): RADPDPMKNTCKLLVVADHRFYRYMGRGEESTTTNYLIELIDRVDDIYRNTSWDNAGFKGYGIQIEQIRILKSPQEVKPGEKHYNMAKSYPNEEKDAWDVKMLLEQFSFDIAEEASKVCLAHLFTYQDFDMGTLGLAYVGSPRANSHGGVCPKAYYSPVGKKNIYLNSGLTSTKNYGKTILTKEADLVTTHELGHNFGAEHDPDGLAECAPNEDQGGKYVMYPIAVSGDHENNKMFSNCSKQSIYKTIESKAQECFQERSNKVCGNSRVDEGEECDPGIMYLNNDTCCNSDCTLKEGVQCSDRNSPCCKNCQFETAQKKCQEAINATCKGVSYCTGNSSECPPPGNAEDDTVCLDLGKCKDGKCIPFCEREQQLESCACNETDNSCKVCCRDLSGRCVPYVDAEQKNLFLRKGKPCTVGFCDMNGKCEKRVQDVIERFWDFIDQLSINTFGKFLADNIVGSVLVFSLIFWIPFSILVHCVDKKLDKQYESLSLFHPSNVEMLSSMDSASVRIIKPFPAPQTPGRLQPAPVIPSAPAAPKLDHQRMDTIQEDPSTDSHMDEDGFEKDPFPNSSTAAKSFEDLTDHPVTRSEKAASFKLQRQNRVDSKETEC
Chain of MMP-9 (P14780 94-707): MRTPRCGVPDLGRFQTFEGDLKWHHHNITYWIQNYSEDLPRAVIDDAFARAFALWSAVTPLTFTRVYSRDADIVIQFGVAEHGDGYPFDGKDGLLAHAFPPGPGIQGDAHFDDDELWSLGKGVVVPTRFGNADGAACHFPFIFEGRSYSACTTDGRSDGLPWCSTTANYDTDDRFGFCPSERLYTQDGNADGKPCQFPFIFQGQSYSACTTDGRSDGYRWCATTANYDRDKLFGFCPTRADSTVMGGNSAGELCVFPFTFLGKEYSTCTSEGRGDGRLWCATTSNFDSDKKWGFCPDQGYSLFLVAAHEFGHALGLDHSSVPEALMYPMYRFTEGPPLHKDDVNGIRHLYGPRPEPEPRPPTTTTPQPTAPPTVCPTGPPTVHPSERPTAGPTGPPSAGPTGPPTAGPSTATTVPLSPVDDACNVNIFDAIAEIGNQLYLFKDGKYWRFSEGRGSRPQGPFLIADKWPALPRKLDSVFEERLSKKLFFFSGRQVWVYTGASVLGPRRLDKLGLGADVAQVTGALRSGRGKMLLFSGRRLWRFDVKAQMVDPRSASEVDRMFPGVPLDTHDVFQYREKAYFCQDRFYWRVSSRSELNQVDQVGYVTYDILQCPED

`CCCCCC#CCOc1ccc(S(=O)(=O)C2(C(=O)NO)CCN(Cc3ccc(Br)cc3)CC2)cc1` [Example 6, 1-(4-Bromo-benzyl)-4-(4-oct-2-ynyloxy-benzenesulfonyl)-piperdine-4-carboxylic acid hydroxyamide] came in with an MMP1 % inhibition in experiment [1] of 32.9%. For the same compound, the MMP9 % inhibition in experiment [2] (printed in the MMP9 IC50 column, concentration not given) is recorded as 58.9%. For the same compound, in experiment [3], the IC50 (in general, the point on the concentration scale where inhibition reaches its midpoint) came out at 393 nM. The MMP13 % inhibition in experiment [4] worked out at 60%.

Take `CC#CCOc1ccc(SC2(C(=O)NO)CCN(Cc3ccc(Br)cc3)CC2)cc1` [Example 16, 1-(4-Bromo-benzyl)-4-(4-but-2-ynyloxy-phenylsulfanyl)-piperidine-4-carboxylic acid hydroxyamide]: the IC50 came out at 2060 nM in experiment [2] (read-out: MMP9 IC50) and 1470 nM in experiment [4]. Moreover, the inhibition (commonly the share of the control response that was lost under treatment) at 1 µM in experiment [3] was 46%.

As to `CC#CCOc1ccc(S(=O)(=O)CC2(C(=O)NO)CCN(CC)CC2)cc1` [Example 46, 4-({[4-(But-2-ynyloxy)phenyl]sulfonyl}methyl)-1-ethyl-N-hydroxypiperidine-4-carboxamide triflouroacetic acid salt], the midpoint of inhibition in experiment [3], the IC50, lay at 105 nM. The same compound had an MMP13 % inhibition in experiment [4] of 55.6%.

As for `CC#CCOc1ccc(S(=O)(=O)CC2(C(=O)NO)CCN(Cc3ccc(Cl)s3)CC2)cc1` [Example 47, 4-({[4-(But-2-ynyloxy)phenyl]sulfonyl}methyl)-1-[(5-chlorothien-2-yl)methyl]-N-hydroxypiperidine-4-carboxamide triflouroacetic acid salt], the IC50 in experiment [3] is 227 nM; in experiment [4], 275 nM.

As to `CC#CCOc1ccc(S(=O)(=O)CC2(C(=O)NO)CCN(C(=O)c3cccnc3)CC2)cc1` [Example 49, 4-({[4-(But-2-ynyloxy)phenyl]sulfonyl}methyl)-N-hydroxy-1-(pyridin-3-ylcarbonyl)piperidine-4-carboxamide triflouroacetic acid salt], the results for the IC50 in experiment [3] and in experiment [4] were 32.6 nM and 1730 nM, respectively.

For `CC#CCOc1ccc(S(=O)(=O)CC2(C(=O)NO)CCN(C(=O)c3ccccc3)CC2)cc1` [Example 50, 1-Benzoyl-4-({[4-(but-2-ynyloxy)phenyl]sulfonyl}-methyl)-N-hydroxypiperidine-4-carboxamide], the half-inhibitory concentration (IC50) in experiment [4] came out at 352 nM.

In the case of `CC#CCOc1ccc(S(=O)(=O)CC2(C(=O)NO)CCN(C(=O)NCC)CC2)cc1` [Example 52, 4-({[4-(But-2-ynyloxy)phenyl]sulfonyl}methyl)-N-1-ethyl-N-4-hydroxypiperidine-1,4-dicarboxamide], the IC50 in experiment [3] worked out at 41.8 nM; in experiment [4], 3710 nM.

On to `CC#CCOc1ccc(S(=O)(=O)CC2(C(=O)NO)CCN(C(=O)Nc3ccccc3)CC2)cc1` [Example 53, 4-({[4-(But-2-ynyloxy)phenyl]sulfonyl}methyl)-N-4-hydroxy-N-1-phenyl-piperidine-1,4-dicarboxamide], for which the IC50 in experiment [3] is 20.8 nM; in experiment [4], 1160 nM.

Turning to `CC#CCOc1ccc(S(=O)(=O)CC2(C(=O)NO)CCN(C(=O)N(CC)CC)CC2)cc1` [Example 54, 4-({[4-(But-2-ynyloxy)phenyl]sulfonyl}methyl)-N-1-,N-1-diethyl-N-4-hydroxypiperidine-1,4-dicarboxamide], the results for the IC50 in experiment [3] and in experiment [4] were 32.2 nM and 104 nM, respectively.

Turning to `CC#CCOc1ccc(S(=O)(=O)CC2(C(=O)NO)CCN(C(=O)N3CCOCC3)CC2)cc1` [Example 55, 4-({[4-(But-2-ynyloxy)phenyl]sulfonyl}methyl)-N-hydroxy-1-(morpholin-4-ylcarbonyl)piperdine-4-carboxamide], the IC50 stood at 70.7 nM in experiment [3] and 600 nM in experiment [4].

As to `CC#CCOc1ccc(S(=O)(=O)CC2(C(=O)NO)CCN(C(=O)N(C)c3ccccc3)CC2)cc1` [Example 56, 4-({[4-(But-2-ynyloxy)phenyl]sulfonyl}methyl)-N-4-hydroxy-N-1-methyl-N-1-phenylpiperidine-1,4-dicarboxamide], the IC50 in experiment [4] stood at 3.2 nM.

On to `CC#CCOc1ccc(S(=O)(=O)CC2(C(=O)NO)CCN(C(=O)OCCCCCCCC)CC2)cc1` [Example 57, Octyl-4-({[4-(but-2-ynyloxy)phenyl]sulfonyl}methyl)-4-[(hydroxyamino)-carbonyl]piperidine-1-carboxylate], for which the IC50 was 694 nM in experiment [3] and 458 nM in experiment [4].

In the case of `CC#CCOc1ccc(S(=O)(=O)CC2(C(=O)NO)CCN(C(=O)Oc3ccc(OC)cc3)CC2)cc1` [Example 58, 4-Methoxyphenyl-4-({[4-(but-2-ynyloxy)phenyl]sulfonyl}methyl)-4-[(hydroxyamino)carbonyl]piperidine-1-carboxylate], the values for the half-maximal inhibitory concentration (IC50) in experiment [3] and in experiment [4] were 21.1 nM and 179 nM, respectively.

Take `CC#CCOc1ccc(S(=O)(=O)CC2(C(=O)NO)CCN(S(=O)(=O)c3ccccc3)CC2)cc1` [Example 59, 4-({[4-(But-2-ynyloxy)phenyl]sulfonyl}methyl)-N-hydroxyl-(phenylsulfonyl)piperidine-4-carboxamide]: the 50% inhibitory concentration (IC50) in experiment [3] is 53.3 nM; in experiment [4], 11.2 nM.

For the compound `CC#CCOc1ccc(S(=O)(=O)CC2(C(=O)NO)CCN(S(=O)(=O)c3cn(C)cn3)CC2)cc1` [Example 60, 4-({[4-(But-2-ynyloxy)phenyl]sulfonyl}methyl)-N-hydroxy-1-1-[(1-methyl-1H-imidazol-4-yl)-sulfonyl]piperidine-4-carboxamide], the figures for the concentration for half-maximal inhibition (IC50) in experiment [3] and in experiment [4] were 38.4 nM and 8 nM, respectively.

Consider `CC#CCOc1ccc(S(=O)(=O)CC2(C(=O)NO)CCN(C(=O)CNCc3ccccc3)CC2)cc1` [Example 61, 1-[2-(Benzylamino)acetyl]-4-({[4-(but-2-ynyloxy)phenyl]sulfonyl}methyl)-N-hydroxypiperidine-4-carboxamide], for which the IC50 in experiment [3] stood at 56.4 nM; in experiment [4] it was 575 nM.

Take `CC#CCOc1ccc(S(=O)(=O)CC2(C(=O)NO)CCN(C(=O)CN3CCN(C)CC3)CC2)cc1` [Example 63, 4-({[4-(But-2-ynyloxy)phenyl]sulfonyl}methyl)-N-hydroxy-1-[2-(4-methylpiperazin-1-yl)acetyl]piperidine-4-carboxamide]: the IC50 in experiment [3] was determined as 66.6 nM; in experiment [4], 2230 nM.
